Test results: article PMC4481117 (Molecular Pain, 2015)

Columns and labels:
[1] = test system: U937 monocytic cells; test: Chemotaxis migration assay of U937 cells to Dyn A agarose gel; assay type: cell-based, human
Protocol: Fig. 7 Chemotactic response of U937 cells to Dyn A. a, schematic representation of the experimental format. U937 cells (5x10^4) were placed in the center of the coverslip between two agar gels, one containing Dyn A and control gel without Dyn A. After 2 h at 37 °C, a series of photographs was taken in the direction of migration at 1-mm intervals to count the number of migrating cells. b , representative images after 2 h of migration show the cells within the starting point (marked with a cross; right panels) and at the border of the Dyn A-containing agar drop (left panels). […] Two bottom panels show the experimental condition with no Dyn A gradient. c, quantification of U937 cells migrated from the initial point after 2 h based on the results shown in A (right panel). Migration of control untreated U937 cells that completely migrated from the initial point of cell placement was assigned a value of 100 %. In contrast, there was no cell migration without a Dyn A gradient (0 %). […] A representative experiment is shown. d, distribution of U937 cells between two gels: Dyn A-containing (on the left) and without Dyn A (on the right). “0” on abscissa corresponds to the initial point where cells were loaded and the numbers show the distance that cells migrated in both directions from the starting point. All cells in each of 10 consecutive fields towards the Dyn A-containing and empty gels were counted and plotted as a distance from the starting point
Chemotaxis assays using U937 monocytic cells were performed on 22 × 22 mm cover slips. 1 % agarose (Life Technologies, Carlsbad, CA) was dissolved in HBSS by heating. After cooling, the agarose solution was mixed with Dyn A to obtain a final concentration of 10 μM. A 10 μl drop of warm agarose solution containing Dyn A was placed at one corner of the cover glass at ~1.5 mm from the edge. A control agarose drop was placed diagonally at the opposite corner of the cover glass. Agarose was allowed to solidify for 5 min, and the cover glasses were placed into wells of the 6-well plate filled with 5 ml of RPMI 1640 + 10 % FBS. A 10-μl aliquot of U937 cells (5x10^4) was loaded in the center of the cover glass and the plate was incubated for 2 h at 37 °C in a humidified atmosphere containing 5 % CO2. In this experimental format, the cells sediment approximately 5 min after loading, forming an ~4 mm circle, and begin to migrate towards the Dyn A-containing agarose drop. […] The photographs were taken at 1-mm intervals in the direction of cell migration towards the dynorphin-containing or control agarose drops without dynorphin A. The number of cells at the starting point and in each of 10 consecutive fields towards the dynorphin-containing and empty gels were counted and plotted as a distance from the starting point.

[2] = test system: Mac-1; test: Mac-1 mediated cell adhesion, effect of naloxone; assay type: cell-based; conditions: control experiments, not shown
[3] = test system: IC-21 macrophages; test: Phagocytosis of Dyn A-coated latex beads by IC-21 macrophages; assay type: cell-based, murine; conditions: heparin 20 μg/ml, naloxone 10 μM, rat IgG2b isotype control
Protocol: Fig. 8 Effect of Dyn A on phagocytosis of latex beads. a, Fluorescent latex beads (1x10^9/ml) were preincubated with Dyn A (50 μg/ml) for 40 min at 37 °C. Soluble peptide was removed from the beads by high-speed centrifugation. Peptide-coated beads were incubated with adherent IC-21 macrophages for 30 min at 37 °C. Nonphagocytosed beads were removed from cells by washing with PBS. […] Rat IgG2b was used as an isotype control for anti-αM mAb M1/70. Phagocytosis was quantified for five random fields per well using a 20x objective. Phagocytosis of Dyn A-treated beads was assigned as 100 %.
A suspension of fluorescent […] latex beads (1x10^9/ml) (FluoSpheres sulfate microspheres, Life Technologies, Carlsbad, CA) was incubated with 50 μg/ml of Dyn A for 40 min at 37 °C, then unbound peptide was removed by centrifugation. IC-21 murine macrophages (5 × 10^5/ml) were adhered on the cover glass for 30 min and 3 × 10^6 of peptide-coated beads were added to adherent IC-21 cells. After incubating for 30 minutes at 37 °C, nonphagocytosed beads were separated from macrophages by washing with 3x1 ml PBS and phagocytosed beads were counted in the presence of trypan blue. […] The ratio of beads per macrophage was quantified by taking photographs of five fields for each well using a Leica DM4000 B microscope (Leica Microsystems, Buffalo Grove, IL) with a 20 × objective.

[4] = test system: Mac-1 (Mac-1-HEK293 cells); test: Inhibition of adhesion of Mac-1-HEK293 cells to fibrinogen by soluble peptides; assay type: cell-based, Human; conditions: soluble peptide, 2.5 μg/mL fibrinogen coating
Protocol: Fig. 4 Effect of soluble Dyn A on Mac-1-mediated cell adhesion to fibrinogen. a (left ordinate), calcein-labeled Mac-1-HEK293 cells were preincubated with different concentrations of dynorphin A (black bar), dynorphin B (open bar) or control peptide (gray bar) for […] at 22 °C and added to the wells of microtiter plates coated with 2.5 μg/mL fibrinogen. Cells were allowed to adhere for 30 minutes at 37 °C before removing nonadherent cells. […] Data are expressed as a percentage of total cell fluorescence
Adhesion assays were performed essentially as described previously. […] Cells were labeled with 10 μM calcein for 30 min at 37 °C and washed twice with Hanks’ Balanced salt solution (HBSS) containing 0.1 % BSA. Aliquots (100 μl) of labeled cells (5x10^5/ml) were added to each well and allowed to adhere for 30 min at 37 °C. The non-adherent cells were removed by two washes with PBS. Fluorescence was measured in a CytoFluorII fluorescence plate reader (Perceptive Biosystems, Framingham, MA). In inhibition experiments, cells were mixed with different concentrations of peptides, NIF or mAbs for 20 min at 22 °C before they were added to the wells coated with adhesive substrates. […] After aspirating the solution, labeled cells were added and cell adhesion was analyzed as above.

[5] = biological target: T1, Mac-1 (Mac-1-expressing HEK293 cells) (Homo sapiens, UniProt P05107+P11215); test: Adhesion of Mac-1-HEK293 cells to immobilized peptide; assay type: cell-based; conditions: coated wells, calcein-labeled cells, 30 min at 37 °C
T1 construct: expressed in transfected cells
Protocol: (§1) For testing the role of glucosaminoglycans in cell adhesion, dynorphin A-coated wells were preincubated with 100 μl of 10 μg/ml of chondroitin sulfate A, chondroitin sulfate B and heparin. Aliquots (5x10^4cells) were added to the wells coated with 2 μM dynorphin A and adhesion was performed as described in A. Adhesion in the absence of Mac-1 inhibitors and glucosaminoglycans was assigned a value of 100 %. The data shown are the means ± S.E. from four separate experiments each with triplicate measurements. d , microtiter plate wells were coated with different concentrations of dynorphin B and adhesion of Mac-1-expressing and wild-type HEK293 cells was determined as described in A. The data shown are means of triplicate determinations, and error bars represent S.E. The figure is representative of 5 experiments. e. calcein-labeled Mac-1-HEK293 cells were preincubated without or with 10 μg/ml of mAb 44a and heparin, added to the wells coated with 20 μM of dynorphin B and adhesion was performed as described in A. Adhesion in the absence of inhibitors was assigned a value of 100 %.
(§2) Adhesion assays were performed essentially as described previously. […] Cells were labeled with 10 μM calcein for 30 min at 37 °C and washed twice with Hanks’ Balanced salt solution (HBSS) containing 0.1 % BSA. Aliquots (100 μl) of labeled cells (5x10^5/ml) were added to each well and allowed to adhere for 30 min at 37 °C. The non-adherent cells were removed by two washes with PBS. Fluorescence was measured in a CytoFluorII fluorescence plate reader (Perceptive Biosystems, Framingham, MA). In inhibition experiments, cells were mixed with different concentrations of peptides, NIF or mAbs for 20 min at 22 °C before they were added to the wells coated with adhesive substrates. In a separate set of experiments, after coating plates with dynorphins and post-coating with 1 % PVP, plates were incubated with 100 μl of 10 μg/ml chondroitin sulfate A, chondroitin sulfate B, or heparin for 20 min at 22 °C. After aspirating the solution, labeled cells were added and cell adhesion was analyzed as above.

[6] = test system: αMI-domain; test: αMI-domain binding to cellulose-bound peptide libraries (SPOT, autoradiography, densitometry); conditions: for Densitometry, % (αMI-domain binding): 9-mer peptides, 3-residue offset, N-acetylated, cellulose-bound via (β-Ala)2, 10 μg/ml 125I-labeled αMI-domain (active form), TBS 1 mM MgCl2, percentage of binding to peptide #1 (100 %); for αMI-domain binding (in words): cellulose-bound 9-mer libraries, 125I-labeled αMI-domain
Protocol: Fig. 1 Screening of the peptide library spanning the sequence of dynorphin AB for αMI-domain binding. a, Amino acid sequence of dynorphin AB (residues 1–32). b, Cellulose membrane with the assembled peptide library consisting of 9-mer peptides with three-residue offset was incubated with ^125I-labeled αMI-domain and subjected to autoradiography followed by densitometry. The αMI-domain binding was observed as dark spots. Spot #10 contains only the β-Ala spacer. The αMI-domain binding was expressed as a percentage of binding to peptide #1, which was assigned a value 100 % and is shown as the numbers on the right of each sequence. The peptide energies that serve as a measure of probability each peptide can interact with the αMI-domain were calculated as described TEXT PRINTED IN THE PICTURE: (B) 1 ([…]): Densitometry, %: 100; Energy, J/mole: -13824 | (B) 2 ([…]): Densitometry, %: 100; Energy, J/mole: -17197 | (B) 3 ([…]): Densitometry, %: 75; Energy, J/mole: -9119 | (B) 4 ([…]): Densitometry, %: 60; Energy, J/mole: -650 | (B) 5 ([…]): Densitometry, %: 40; Energy, J/mole: -2880 | (B) 6 ([…]): Densitometry, %: 90; Energy, J/mole: -5355 | (B) 7 ([…]): Densitometry, %: 90; Energy, J/mole: -12541 | (B) 8 ([…]): Densitometry, %: 100; Energy, J/mole: -12344 | (B) 9 ([…]): Densitometry, %: 100; Energy, J/mole: -9738 | (B) 10 (β-alanine control): Densitometry, %: 0 | (B) Control peptide ([…]): Energy, J/mole: 11107
Peptide libraries derived from dynorphin AB assembled on cellulose membrane supports were prepared by parallel spot synthesis as previously described. Peptides were COOH-terminally attached to cellulose via a (β-Ala)2 spacer and were acetylated N-terminally. The membrane-bound peptides were tested for their ability to bind the αMI-domain according to a previously described procedure. In brief, the membrane was blocked with 1 % BSA and then incubated with 10 μg/ml of ^125I-labeled αMI-domain in TBS containing 1 mM MgCl2. After washing, the membrane was dried and the αMI-domain binding was visualized by autoradiography.
Additional file 1: Figure S1. Identification of residues in dynorphin A critical for α MI-domain binding. The dynorphin AB-based substitutional peptide libraries with single, double or triple mutations of basic residues were prepared by SPOT synthesis as described in Experimental Procedures. Mutated amino acid residues are shown in red. The membranes with synthesized peptide libraries were incubated with ^125I-labeled α MI-domain and subjected to autoradiography. The α MI-domain binding was analyzed by densitometry and expressed in arbitrary units with the strongest binding to wild-type peptides assigning a value of 4+. The peptides that partially lost their ability to bind the α MI-domain were grouped according to their activity and marked as 3+, 2+ and +. The peptides that lost their ability to bind the α MI-domain are marked with “NB “.

[7] = test system: Mac-1 (Mac-1-HEK293 cells); test: Inhibition of adhesion of Mac-1-HEK293 cells to Dyn A; assay type: cell-based, Human; conditions: 2 μM Dyn A coating; for Inhibition of adhesion to Dyn A in combination with NIF (in words): glycosaminoglycan 10 μg/ml with NIF; for Inhibition of adhesion to Dyn A (in words): wells preincubated with glycosaminoglycan 10 μg/ml, 20 min, alone
Protocol: as §1, §2

Molecule	Densitometry, % (αMI-domain binding) [6] [%]	αMI-domain binding (in words) [6]	also measured
C=CCN1CC[C@]23c4c5ccc(O)c4O[C@H]2C(=O)CC[C@@]3(O)[C@H]1C5 [naloxone]	–	–	Mean distance travelled by inhibitor-treated cells ([1]; Dyn A gradient, 2 h, mAb 44a 20 μg/ml or naloxone 10 μM): ~ 5 mm; Migration from initial point blocked ([1]; mAb 44a 20 μg/ml or naloxone 10 μM, 30 min preincubation, 2 h at 37 °C, representative experiment): ~ 20%; Arrival of inhibitor-treated cells at Dyn A-containing drop ([1]; mAb 44a 20 μg/ml or naloxone 10 μM, 2 h): only a few cells arrived; Cells remaining at the start ([1]; naloxone 10 μM, Dyn A gradient, 2 h): ~ 20%; Effect on Mac-1 mediated cell adhesion [2]: does not affect Mac-1 mediated cell adhesion; Effect on Dyn A-mediated phagocytosis (in words) [3]: did not decrease the number of phagocytosed beads
DIDPKLKWD [control peptide, purchased from AnaSpec; also mutant in substitutional library]	–	–	Inhibition of adhesion to fibrinogen (in words) [4]: only slightly inhibitory; Adhesion of Mac-1-HEK293 cells (in words) [5]: failed to support adhesion
FLRRIRPKL	100	highest affinities	–
GFLRRQFKV	100	–	–
KWDNQKRYG	40	weakened their αMI-domain binding activity	–
NQKRYGGFL	90	–	–
PKLKWDNQK	60	weakened their αMI-domain binding activity	–
RIRPKLKWD	75	weakened their αMI-domain binding activity	–
RRQFKVVGG	100	–	–
RYGGFLRRQ	90	–	–
YGGFLRRIR	100	highest affinities	–
chondroitin sulfate A	–	–	Inhibition of adhesion to Dyn A in combination with NIF (in words) [7]: not exert a statistically significant inhibitory effect; Inhibition of adhesion to Dyn A (in words) [7]: not exert a statistically significant inhibitory effect
chondroitin sulfate B	–	–	Inhibition of adhesion to Dyn A in combination with NIF (in words) [7]: not exert a statistically significant inhibitory effect; Inhibition of adhesion to Dyn A (in words) [7]: not exert a statistically significant inhibitory effect
heparin	–	–	Inhibition of adhesion to Dyn A (in words) [7]: slight inhibition; Effect on Dyn A-mediated phagocytosis (in words) [3]: did not decrease the number of phagocytosed beads
